Where “and” joins values, the source holds several entries; their conditions need not be identical. Equal values may be shown once. Read-outs that look alike come from different tables or passages of the source. Marks after values point to notes of the source that are not given here. No end group written: not given here.
Tests used:
Female Kunming mice [1] = system: Female Kunming mice
Female Kunming mice [2] = system: Female Kunming mice; remark: listed apart in the source
Female Kunming mice [3] = format: in vivo
SD rats = assay: pain threshold of trigeminal nerve (trigeminal neuralgia model); format: in vivo; settings: for highest pain threshold on the operative side / pain threshold on the opposite side: 3 h after injection; for Pain threshold: intraperitoneal
Kunming mice [4] = settings: mouse, in vivo
Female Kunming mice [5] = system: Female Kunming mice; remark: listed apart in the source
Kunming mice [6] = format: in vivo
male BALB/c mice = assay: cancer-induced pain (CIP) model, thermosensitive test; format: in vivo; settings: heat radiation stimulation
Procedure: Influence of Analgesic Polypeptides on Neuralgia in a Cancer-Induced Pain (CIP) Model
A number of male BALB/c mice each weighing 25-30 g were used.
Von Fery monofilament; a microsyringe, 5 mg/mL solutions of polypeptides I, II and II I; normal saline.
BALB/c mice were taken, and the right sciatic nerve was exposed; ascites containing 5×10^4 Meth A sarcoma cells were injected into the proximal nerve near the sciatic nerve trochanter far from the tendon branch of the posterior biceps, the wound was closed, and the same volume of normal saline was injected into the left side by performing a sham operation.
1.3.1 Thermosensitive Test
On the 4th, 7th, 10th and 14th days after inoculation, the latency of foot lifting caused by heat radiation stimulation to animals was observed, and the heat radiation intensity was adjusted to cause the latency of foot lifting of normal mice to be (10±2) s.
All data was expressed as M±SD and subjected to one-way ANOVA.

[7] = 50 μg/kg, injected subcutaneously
[8] = 100 μg/kg, injected subcutaneously

Sequence: KCSTPPDAVLYC (cysteine pairing not given here) [Polypeptide III, one pair of disulfide bonds formed between the two cysteines]
- Duration of the immobility of mice in tail suspension tests (Female Kunming mice [1]; 1 h): 20.12 ± 1.28 s
- Duration of the immobility of mice in tail suspension tests (Female Kunming mice [1]; 24 h): 19.23 ± 1.84 s
- Duration of the immobility of mice in tail suspension tests (Female Kunming mice [1]; Time 0): 19.28 ± 1.02 s
- data of tail suspension test compared with the normal saline group (Female Kunming mice [1]; mouse, in vivo, ip): no significant difference
- toxic side effects compared with the conotoxin (tail suspension) (Female Kunming mice [1]; mouse, in vivo, ip): lower toxic side effects
- Movement distances of mice in open field tests (Female Kunming mice [2]; 1 h): 18.27 ± 1.22^
- Movement distances of mice in the center area in open field tests (Female Kunming mice [2]; 1 h): 18.57 ± 1.22^
- Movement distances of mice in the peripheral area in open field tests (Female Kunming mice [2]; 1 h): 19.47 ± 1.32^
- Number of entrances to the center area in open field tests (Female Kunming mice [2]; 1 h): 18.47 ± 0.32^
- Number of entrances to the peripheral area in open field tests (Female Kunming mice [2]; 1 h): 18.57 ± 1.42^
- Residence time in the center area in open field tests (Female Kunming mice [2]; 1 h): 18.37 ± 1.22^ s
- Residence time in the peripheral area in open field tests (Female Kunming mice [2]; 1 h): 14.27 ± 1.34^ s
- Movement distances of mice in open field tests (Female Kunming mice [2]; 24 h): 19.13 ± 2.38 m
- Movement distances of mice in the center area in open field tests (Female Kunming mice [2]; 24 h): 18.13 ±1.38 m
- Movement distances of mice in the peripheral area in open field tests (Female Kunming mice [2]; 24 h): 19.03 ± 2.48 m
- Number of entrances to the center area in open field tests (Female Kunming mice [2]; 24 h): 18.23 ± 1.48
- Number of entrances to the peripheral area in open field tests (Female Kunming mice [2]; 24 h): 17.13 ± 2.18
- Residence time in the center area in open field tests (Female Kunming mice [2]; 24 h): 18.13 ± 1.38 s
- Residence time in the peripheral area in open field tests (Female Kunming mice [2]; 24 h): 18.13 ± 1.45 s
- Movement distances of mice in open field tests (Female Kunming mice [2]; Time 0): 21.28 ± 1.28 m
- Movement distances of mice in the center area in open field tests (Female Kunming mice [2]; Time 0): 21.88 ±1.18 m
- Movement distances of mice in the peripheral area in open field tests (Female Kunming mice [2]; Time 0): 20.98 ± 1.28 m
- Number of entrances to the center area in open field tests (Female Kunming mice [2]; Time 0): 21.28 ± 1.28
- Number of entrances to the peripheral area in open field tests (Female Kunming mice [2]; Time 0): 21.28 ± 1.38
- Residence time in the center area in open field tests (Female Kunming mice [2]; Time 0): 21.78 ± 1.17 s
- Residence time in the peripheral area in open field tests (Female Kunming mice [2]; Time 0): 21.88 ± 1.38 s
- side effects compared with conotoxin (open field) (Female Kunming mice [2]; mouse, in vivo, ip): lower side effects
- various indexes in open field experiments compared with the normal saline group (Female Kunming mice [2]; mouse, in vivo, ip): no significant difference
- Pain threshold (Female Kunming mice [3]; 0 min): 29.22 ± 0.11 s
- Pain threshold (Female Kunming mice [3]; mouse, in vivo, ip): 31.22 ± 0.42^∧∧ s and 33.12 ± 0.32*^∧ s and 27.23 ± 0.42^∧ s and 21.49 ± 0.45^∧ s and 32.14 ± 0.42 s and 21.43 ± 0.24 s
- heat thresholds of mice compared with the normal saline negative control group (Female Kunming mice [3]; mouse, in vivo, ip): effectively increase the heat thresholds of mice
- animal reaction thresholds (SD rats; 50 μg/kg and 100 μg/kg, injected subcutaneously): significantly increased
- time the pain thresholds lasted (SD rats; [7]): 1 h
- highest pain threshold on the operative side (SD rats; [7]): 2.3 ± 0.5 g
- pain threshold on the opposite side (SD rats; [7]): 1.2 ± 0.2 g
- time the effect on the operative side lasted (SD rats; [8]): about 8 h
- highest pain threshold on the operative side (SD rats; [8]): 7.4 ± 0.9 g
- pain threshold on the opposite side (SD rats; [8]): 3.2 ± 1.3 g
- pain threshold change (SD rats; 300 μg/kg, subcutaneously): not significantly increased
- Pain threshold (SD rats; Dose 50 (μg/kg), 0 h): 25.98 ± 0.11 s
- Pain threshold (SD rats; Dose 50 (μg/kg), 1 h): 26.25 ± 0.46 s
- Pain threshold (SD rats; Dose 50 (μg/kg), 2 h): 26.69 ± 0.62 s
- Pain threshold (SD rats; Dose 50 (μg/kg), 3 h): 26.91 ± 0.49 s
- Pain threshold (SD rats; Dose 50 (μg/kg), 4 h): 27.91 ± 0.26 s
- Pain threshold (SD rats; Dose 50 (μg/kg), 5 h): 26.91 ± 0.61 s
- Pain threshold (SD rats; Dose 100 (μg/kg), 0 h): 26.56 ± 0.23 s
- Pain threshold (SD rats; Dose 100 (μg/kg), 1 h): 27.65 ± 0.61 s
- Pain threshold (SD rats; Dose 100 (μg/kg), 2 h): 28.16 ± 0.59 s
- Pain threshold (SD rats; Dose 100 (μg/kg), 3 h): 27.19 ± 0.91 s
- Pain threshold (SD rats; Dose 100 (μg/kg), 4 h): 28.16 ± 0.61 s
- Pain threshold (SD rats; Dose 100 (μg/kg), 5 h): 26.16 ± 0.91 s
- Pain threshold (SD rats; Dose 300 (μg/kg), 0 h): 26.15 ± 0.65 s
- Pain threshold (SD rats; Dose 300 (μg/kg), 1 h): 31.95 ± 0.56 s
- Pain threshold (SD rats; Dose 300 (μg/kg), 2 h): 30.21 ± 0.64 s
- Pain threshold (SD rats; Dose 300 (μg/kg), 3 h): 29.91 ± 0.61 s
- Pain threshold (SD rats; Dose 300 (μg/kg), 4 h): 28.85 ± 0.41 s
- Pain threshold (SD rats; Dose 300 (μg/kg), 5 h): 27.92 ± 0.61 s
- analgesic effects in formalin-induced pain experiments (Kunming mice [4]): good analgesic effects
- cumulative foot licking time, Phase I (Kunming mice [4]): 47.19 ± 10.21*^
- cumulative foot licking time, Phase II (Kunming mice [4]): 41.23 ± 13.21
- Movement duration of mice in forced swimming tests (Female Kunming mice [5]; 1 h): 18.57 ± 1.21^ s
- Movement duration of mice in forced swimming tests (Female Kunming mice [5]; 24 h): 17.13 ± 1.23 s
- Movement duration of mice in forced swimming tests (Female Kunming mice [5]; Time 0): 21.40 ± 1.38 s
- toxic side effects compared with the conotoxin (forced swimming) (Female Kunming mice [5]; mouse, in vivo, ip): lower toxic side effects
- Pain threshold (tail flick) (Kunming mice [6]; 0 min): 2.31 ± 0.22 s
- Pain threshold (tail flick) (Kunming mice [6]; 15 min): 2.22 ± 0.21^∧∧ s
- Pain threshold (tail flick) (Kunming mice [6]; 30 min): 2.32 ± 0.12 s
- Pain threshold (tail flick) (Kunming mice [6]; 45 min): 4.12 ± 0.12^∧ s
- Pain threshold (tail flick) (Kunming mice [6]; 60 min): 2.12 ± 0.21 s
- Pain threshold (tail flick) (Kunming mice [6]; 75 min): 2.14 ± 0.12 s
- Pain threshold (tail flick) (Kunming mice [6]; 90 min): 3.12 ± 0.14 s
- difference from the normal saline group during a time period (**P<0.01) (Kunming mice [6]; mouse, in vivo): significantly different from the normal saline group
- Latency of foot lifting before administration (male BALB/c mice; before administration): 9.77 ± 1.21
- Latency (D) of foot lifting after administration (male BALB/c mice; day 4): 9.45 ± 1.02
- Latency (D) of foot lifting after administration (male BALB/c mice; day 7): 8.88 ± 0.86
- Latency (D) of foot lifting after administration (male BALB/c mice; day 10): 8.26 ± 1.21
- Latency (D) of foot lifting after administration (male BALB/c mice; day 14): 6.78 ± 1.22

— patent US11192921B2 (priority 2017, dated 2021)
